One block for each compound: values may come before it. The source made the active and inactive calls.
What was measured:
[1] = target: Macrophage colony-stimulating factor 1 receptor (Homo sapiens, UniProt P07333); format: functional;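 further: value comes from the Navigating the Kinome screening panel, CSF1R member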
[2] = target: Serine/threonine-protein kinase Chk1 (Homo sapiens, UniProt O14757); format: functional;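 further: measured as one member of a kinome-wide kinase profiling panel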
[3] = target: LIM domain kinase 1 (Homo sapiens, UniProt P53667); test: Navigating the Kinome. Panel member name: LIMK1; format: functional
[4] = target: Neuropeptides B/W receptor type 1 (Homo sapiens, UniProt P48145); test: human NPBW1 receptor blockade, IC50 – cell-based, fluorescence, dose response, set 5, late-stage follow-up (AID 588566); format: functional
[5] = target: Melanin-concentrating hormone receptor 1 (Homo sapiens, UniProt Q99705); test: Late-stage fluorescence-based counterscreen for antagonists of the G-protein coupled receptor 7 (GPR7): cell-based dose response assay to identify antagonists of the melanin-concentrating hormone receptor 1 (MCHR1) Set 5.; format: functional
Melanin-concentrating hormone receptor 1, sequence (Q99705 whole entry): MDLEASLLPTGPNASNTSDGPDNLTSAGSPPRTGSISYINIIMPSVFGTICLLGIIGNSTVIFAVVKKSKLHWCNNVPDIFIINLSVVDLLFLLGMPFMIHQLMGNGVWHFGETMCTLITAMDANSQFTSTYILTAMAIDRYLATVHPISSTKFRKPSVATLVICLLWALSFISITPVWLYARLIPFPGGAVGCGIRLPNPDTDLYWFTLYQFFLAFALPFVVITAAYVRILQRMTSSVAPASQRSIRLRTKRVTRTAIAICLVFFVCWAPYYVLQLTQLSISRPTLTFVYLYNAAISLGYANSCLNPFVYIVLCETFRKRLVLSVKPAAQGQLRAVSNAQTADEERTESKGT

[6] = target: Lymphokine-activated killer T-cell-originated protein kinase (Homo sapiens, UniProt Q96KB5); format: functional;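 further: value comes from a kinase panel screen in which TOPK was one of the panel members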
[7] = target: MAP kinase-activated protein kinase 3 (Homo sapiens, UniProt Q16644); format: functional;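 further: value comes from a kinome-wide profiling panel in which MAPKAPK3 is one of the panel members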
MAP kinase-activated protein kinase 3, sequence (Q16644 whole entry): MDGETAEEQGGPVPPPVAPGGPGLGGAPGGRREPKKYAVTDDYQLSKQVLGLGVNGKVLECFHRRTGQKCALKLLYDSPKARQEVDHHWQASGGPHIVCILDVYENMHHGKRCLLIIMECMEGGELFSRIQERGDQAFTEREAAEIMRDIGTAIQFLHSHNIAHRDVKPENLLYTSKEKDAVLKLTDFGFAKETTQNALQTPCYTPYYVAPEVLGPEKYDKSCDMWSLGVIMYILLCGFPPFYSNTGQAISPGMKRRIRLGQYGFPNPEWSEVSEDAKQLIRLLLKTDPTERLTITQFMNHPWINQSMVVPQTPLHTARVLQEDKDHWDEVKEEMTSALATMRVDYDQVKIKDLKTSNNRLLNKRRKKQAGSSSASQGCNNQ

[8] = target: Cyclin-dependent kinase 19 (Homo sapiens, UniProt Q9BWU1); test: Navigating the Kinome. Panel member name: CDC2L6; format: functional
[9] = target: Serine/threonine-protein kinase pim-1 (Homo sapiens, UniProt P11309); format: functional
Serine/threonine-protein kinase pim-1, sequence (P11309 whole entry): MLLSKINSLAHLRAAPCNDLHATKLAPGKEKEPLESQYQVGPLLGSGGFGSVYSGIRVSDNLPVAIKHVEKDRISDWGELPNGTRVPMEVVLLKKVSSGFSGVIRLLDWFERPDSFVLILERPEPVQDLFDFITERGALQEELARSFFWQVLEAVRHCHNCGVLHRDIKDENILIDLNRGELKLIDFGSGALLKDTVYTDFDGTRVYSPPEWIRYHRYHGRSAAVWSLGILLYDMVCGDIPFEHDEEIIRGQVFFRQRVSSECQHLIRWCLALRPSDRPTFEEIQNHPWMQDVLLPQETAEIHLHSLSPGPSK

[10] = target: Hepatocyte growth factor receptor (Homo sapiens, UniProt P08581); format: functional;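 further: kinase panel profiling across the kinome, with MET as the panel member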
Hepatocyte growth factor receptor, sequence (P08581 whole entry): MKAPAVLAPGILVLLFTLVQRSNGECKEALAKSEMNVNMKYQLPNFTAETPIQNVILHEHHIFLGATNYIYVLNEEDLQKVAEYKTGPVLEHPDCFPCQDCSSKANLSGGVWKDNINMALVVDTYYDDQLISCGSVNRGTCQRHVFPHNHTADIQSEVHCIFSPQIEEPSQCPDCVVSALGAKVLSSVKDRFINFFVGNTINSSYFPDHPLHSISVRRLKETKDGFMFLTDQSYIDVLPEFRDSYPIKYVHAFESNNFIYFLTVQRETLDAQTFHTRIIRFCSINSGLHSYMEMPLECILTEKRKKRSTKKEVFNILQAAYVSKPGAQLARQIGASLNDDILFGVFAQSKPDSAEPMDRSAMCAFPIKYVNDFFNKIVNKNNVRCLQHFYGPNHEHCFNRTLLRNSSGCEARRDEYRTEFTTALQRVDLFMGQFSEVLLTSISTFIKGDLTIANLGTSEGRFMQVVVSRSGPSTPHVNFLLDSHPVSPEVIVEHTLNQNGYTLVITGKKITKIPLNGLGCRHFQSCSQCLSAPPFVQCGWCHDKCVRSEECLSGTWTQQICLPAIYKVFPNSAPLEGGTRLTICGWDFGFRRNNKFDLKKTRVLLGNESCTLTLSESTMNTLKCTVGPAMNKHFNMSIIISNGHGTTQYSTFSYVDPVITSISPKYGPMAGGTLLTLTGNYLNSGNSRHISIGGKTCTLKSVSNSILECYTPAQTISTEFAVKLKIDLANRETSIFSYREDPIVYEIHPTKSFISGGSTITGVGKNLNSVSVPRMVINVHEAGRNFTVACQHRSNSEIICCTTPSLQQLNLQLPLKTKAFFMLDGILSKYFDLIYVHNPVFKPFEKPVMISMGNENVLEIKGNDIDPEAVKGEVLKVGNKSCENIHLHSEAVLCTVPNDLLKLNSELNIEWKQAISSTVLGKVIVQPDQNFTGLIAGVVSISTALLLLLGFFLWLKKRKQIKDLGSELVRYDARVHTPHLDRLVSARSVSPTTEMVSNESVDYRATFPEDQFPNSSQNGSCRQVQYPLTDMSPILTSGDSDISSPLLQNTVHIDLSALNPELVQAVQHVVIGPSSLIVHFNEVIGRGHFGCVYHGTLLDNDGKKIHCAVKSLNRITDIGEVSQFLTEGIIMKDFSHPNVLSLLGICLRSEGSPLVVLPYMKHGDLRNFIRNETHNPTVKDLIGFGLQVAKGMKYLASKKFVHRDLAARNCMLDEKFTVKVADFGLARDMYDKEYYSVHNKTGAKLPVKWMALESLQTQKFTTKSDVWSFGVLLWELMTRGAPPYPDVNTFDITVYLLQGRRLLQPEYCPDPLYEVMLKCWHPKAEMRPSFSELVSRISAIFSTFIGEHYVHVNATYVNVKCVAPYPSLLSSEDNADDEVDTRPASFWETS

[11] = target: High affinity nerve growth factor receptor (Homo sapiens, UniProt P04629); format: functional;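 further: NTRK1 tested as one member of a kinome-wide profiling panel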
High affinity nerve growth factor receptor, sequence (P04629 whole entry): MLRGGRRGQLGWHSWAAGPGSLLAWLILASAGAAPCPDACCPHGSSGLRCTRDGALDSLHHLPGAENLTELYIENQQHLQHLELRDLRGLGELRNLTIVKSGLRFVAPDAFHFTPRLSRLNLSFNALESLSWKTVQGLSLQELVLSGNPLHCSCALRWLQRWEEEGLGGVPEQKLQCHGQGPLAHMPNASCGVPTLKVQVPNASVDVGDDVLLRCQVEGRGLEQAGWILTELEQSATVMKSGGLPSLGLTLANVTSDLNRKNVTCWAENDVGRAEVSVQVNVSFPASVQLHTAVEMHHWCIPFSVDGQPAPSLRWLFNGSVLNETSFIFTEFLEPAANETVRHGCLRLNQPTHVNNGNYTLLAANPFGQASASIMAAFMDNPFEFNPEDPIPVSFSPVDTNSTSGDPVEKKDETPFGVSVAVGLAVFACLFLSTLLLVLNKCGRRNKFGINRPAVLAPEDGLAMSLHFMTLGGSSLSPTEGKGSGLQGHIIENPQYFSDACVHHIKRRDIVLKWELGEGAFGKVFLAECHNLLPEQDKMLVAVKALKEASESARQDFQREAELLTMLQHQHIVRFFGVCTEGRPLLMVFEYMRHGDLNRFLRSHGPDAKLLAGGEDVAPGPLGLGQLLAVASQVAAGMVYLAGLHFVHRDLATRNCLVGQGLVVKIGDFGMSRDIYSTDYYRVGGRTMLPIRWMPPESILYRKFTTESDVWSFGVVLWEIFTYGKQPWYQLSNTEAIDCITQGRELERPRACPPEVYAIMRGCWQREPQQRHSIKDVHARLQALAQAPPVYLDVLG

[12] = target: Leukocyte tyrosine kinase receptor (Homo sapiens, UniProt P29376); test: Navigating the Kinome. Panel member name: LTK; format: functional
[13] = target: Wee1-like protein kinase (Homo sapiens, UniProt P30291); test: Navigating the Kinome. Panel member name: WEE1; format: functional
Wee1-like protein kinase, sequence (P30291 whole entry): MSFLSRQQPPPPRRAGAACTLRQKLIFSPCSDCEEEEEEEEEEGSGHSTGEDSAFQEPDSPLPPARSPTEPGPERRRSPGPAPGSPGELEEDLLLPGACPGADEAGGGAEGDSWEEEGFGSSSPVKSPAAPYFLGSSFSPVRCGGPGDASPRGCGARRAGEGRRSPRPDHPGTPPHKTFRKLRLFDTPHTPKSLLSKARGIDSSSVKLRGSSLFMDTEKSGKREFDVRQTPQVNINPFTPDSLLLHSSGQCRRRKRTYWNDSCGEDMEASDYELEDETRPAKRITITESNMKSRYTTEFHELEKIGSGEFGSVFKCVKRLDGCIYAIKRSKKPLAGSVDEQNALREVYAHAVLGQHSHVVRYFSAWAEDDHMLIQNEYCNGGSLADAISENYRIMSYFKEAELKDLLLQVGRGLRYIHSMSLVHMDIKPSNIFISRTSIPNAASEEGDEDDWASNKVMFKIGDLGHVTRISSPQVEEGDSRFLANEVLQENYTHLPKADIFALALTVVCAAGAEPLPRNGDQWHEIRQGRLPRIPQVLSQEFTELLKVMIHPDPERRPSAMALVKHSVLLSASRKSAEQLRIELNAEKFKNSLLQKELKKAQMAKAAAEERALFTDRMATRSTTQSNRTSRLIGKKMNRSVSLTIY

[14] = target: ALK tyrosine kinase receptor (Homo sapiens, UniProt Q9UM73); format: functional;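 further: ALK tested as one member of a kinase panel screen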
[15] = target: T1, High affinity choline transporter 1 (Homo sapiens, UniProt Q9GZV3); test: human choline transporter blockers, potency – cell-based, 5-point CRC, membrane potential dye, dose response (AID 504840); format: functional
T1 sequence (Q9GZV3 whole entry): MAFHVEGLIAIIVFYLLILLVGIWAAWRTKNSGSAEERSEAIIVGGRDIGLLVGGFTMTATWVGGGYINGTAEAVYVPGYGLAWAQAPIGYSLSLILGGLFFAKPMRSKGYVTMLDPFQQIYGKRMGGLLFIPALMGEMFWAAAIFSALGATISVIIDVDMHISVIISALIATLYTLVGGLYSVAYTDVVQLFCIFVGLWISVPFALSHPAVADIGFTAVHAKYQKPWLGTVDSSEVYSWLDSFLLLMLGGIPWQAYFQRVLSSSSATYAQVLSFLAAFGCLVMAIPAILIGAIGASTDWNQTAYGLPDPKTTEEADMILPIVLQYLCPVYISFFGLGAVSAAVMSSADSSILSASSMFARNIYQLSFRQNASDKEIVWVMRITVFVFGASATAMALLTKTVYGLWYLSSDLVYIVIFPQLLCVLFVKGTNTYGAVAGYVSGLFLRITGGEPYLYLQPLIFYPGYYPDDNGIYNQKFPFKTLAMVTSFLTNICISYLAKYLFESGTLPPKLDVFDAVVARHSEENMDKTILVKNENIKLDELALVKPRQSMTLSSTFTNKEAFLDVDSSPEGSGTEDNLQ

[16] = target: FAD-linked sulfhydryl oxidase ALR (Homo sapiens, UniProt P55789); test: ALR-catalysed DTT oxidation blockers – biochemical, H2O2 detection, luminescence, cherry-pick, dose response (AID 493248)
FAD-linked sulfhydryl oxidase ALR, sequence (P55789 whole entry): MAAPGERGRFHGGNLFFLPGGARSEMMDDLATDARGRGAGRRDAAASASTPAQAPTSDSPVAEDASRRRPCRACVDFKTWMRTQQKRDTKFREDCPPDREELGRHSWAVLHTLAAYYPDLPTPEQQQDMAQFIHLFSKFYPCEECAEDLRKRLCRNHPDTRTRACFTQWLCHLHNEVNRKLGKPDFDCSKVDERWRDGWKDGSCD

[17] = target: T1, High affinity choline transporter 1; test: human choline transporter blockers, potency – cell-based, 10-point CRC, membrane potential dye, dose response (AID 588401); format: functional;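 further: membrane potential dye fluorescence of choline-evoked depolarization via CHT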
[18] = target: Aurora kinase B (Homo sapiens, UniProt Q96GD4); format: functional
[19] = target: Mitogen-activated protein kinase kinase kinase kinase 5 (Homo sapiens, UniProt Q9Y4K4); format: functional;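 further: measured as one member of a kinome-spanning kinase panel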
[20] = target: Casein kinase II subunit alpha (Homo sapiens, UniProt P68400); format: functional
Casein kinase II subunit alpha, sequence (P68400 whole entry): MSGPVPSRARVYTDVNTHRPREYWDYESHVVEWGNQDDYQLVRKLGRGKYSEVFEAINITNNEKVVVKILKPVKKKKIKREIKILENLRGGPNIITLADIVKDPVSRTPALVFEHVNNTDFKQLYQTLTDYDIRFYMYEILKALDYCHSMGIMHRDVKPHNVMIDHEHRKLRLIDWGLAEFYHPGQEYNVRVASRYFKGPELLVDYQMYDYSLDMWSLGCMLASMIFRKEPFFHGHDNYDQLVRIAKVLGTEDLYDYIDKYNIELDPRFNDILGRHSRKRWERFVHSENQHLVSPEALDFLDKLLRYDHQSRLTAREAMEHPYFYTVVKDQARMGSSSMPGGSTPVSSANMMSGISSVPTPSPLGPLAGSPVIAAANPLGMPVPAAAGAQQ

Serine/threonine-protein kinase Chk1, sequence (O14757 whole entry, the tested form may be a part): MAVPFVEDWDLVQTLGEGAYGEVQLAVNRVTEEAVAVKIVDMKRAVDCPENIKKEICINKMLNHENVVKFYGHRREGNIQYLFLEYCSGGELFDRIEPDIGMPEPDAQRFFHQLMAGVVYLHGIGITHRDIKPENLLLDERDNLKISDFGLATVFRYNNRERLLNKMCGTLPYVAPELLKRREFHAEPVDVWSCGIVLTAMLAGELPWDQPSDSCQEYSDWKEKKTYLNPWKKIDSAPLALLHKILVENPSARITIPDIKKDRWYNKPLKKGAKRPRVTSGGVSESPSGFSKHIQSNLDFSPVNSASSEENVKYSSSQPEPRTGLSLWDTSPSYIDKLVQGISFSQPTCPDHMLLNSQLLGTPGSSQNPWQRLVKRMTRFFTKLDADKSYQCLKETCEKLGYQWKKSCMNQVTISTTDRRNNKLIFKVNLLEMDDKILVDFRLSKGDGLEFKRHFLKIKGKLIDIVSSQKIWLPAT

Ki [1]: > 100000 nM (inactive)
Ki [2]: 25100 nM (active)
Ki [3]: 10000 nM (active)
Structure (SMILES): c1ccc(-c2ncc3ccccn23)cc1

IC50 [4]: 887 nM (active)
IC50 [5]: > 20000 nM (inactive)
Structure (SMILES): CCOc1ccc(Sc2c(Cl)cnn(Cc3cccc4ccccc34)c2=O)cc1

Ki [7]: > 10000 nM (inactive)
Structure (SMILES): COc1cc2ncnc(Nc3ccc(F)c(Cl)c3)c2cc1OCCCN1CCOCC1 [GEFITINIB]
Ki [6]: > 10000 nM (inactive)

Ki [8]: > 100000 nM (inactive)
Ki [9]: 1580 nM (active)
Ki [10]: 2510 nM (active)
Ki [11]: > 15800 nM (inactive)
Ki [12]: 2510 nM (active)
Structure (SMILES): CCc1cc(-c2n[nH]c(C)c2-c2ccc3c(c2)OCCO3)c(O)cc1O

Ki [13]: 200 nM (active)
Ki [14]: 2510 nM (active)
Structure (SMILES): CNc1nc(C)c(-c2ccnc(Nc3ccc(N4CCN(C(C)=O)CC4)cc3)n2)s1

Structure (SMILES): Oc1ccc(CC2CC3CCN2CC3)cc1O (stereo unspecified)
IC50 [15]: 1080 nM (active)
AC50 [16]: 3810 nM (active)
IC50 [17]: 1150 nM (active)

Ki [18]: 1580 nM (active)
Ki [19]: 2000 nM (active)
Ki [9]: 1580 nM (active)
Ki [20]: 3980 nM (active)
Structure (SMILES): COc1ccc(C=C2C(=O)ON=C2c2ccc(Br)cc2)cc1

— ChEMBL document CHEMBL1201862, “PubChem BioAssay data set” (2004)
